The source made the active and inactive calls.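 How the source made its calls: active means compounds giving half or more protection of infected cells from virus-caused growth loss, again on retest; inactive means the rest.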
Tested on: CEM cells HIV-1 protection, formazan growth assay
Assay: NCI AIDS Antiviral Assay
Settings: for IC50: measured here: growth of uninfected CEM cells
Outline: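 Category rules: moderately active means at least 50% protection on retest, and confirmed active means 100% protection reproducibly. The underlying data came from a formazan growth assay in HIV-1-infected CEM cells.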

With `C=C(C(=O)O)C1CCC(CC/C=C(\C)CC/C=C(\C)CCC=C(C)C)CO1` (stereo unspecified) the EC50 was > 200 µM and the IC50 was 6.17 µM.
In the case of `Cc1cc(=O)n2c(nc3ccccc32)s1`, the EC50 is reported as > 200 µM and the IC50 is reported as > 200 µM.
`CC(=O)[CH-]C(=O)c1ccccc1.CC(=O)[CH-]C(=O)c1ccccc1.CC(=O)[CH-]C(=O)c1ccccc1.[Tl+3]` was tested, and the EC50 was > 138 µM and the IC50 was 49 µM.
With `CCN(CC)CCO/N=C1\CC[C@H]2[C@@H]3CC=C4C[C@@H](O)CC[C@]4(C)[C@H]3CC[C@]12C` the EC50 was > 200 µM and the IC50 was 15.5 µM.
`Clc1cccc(C2ON=C(c3ccccc3)N2C23CC4CC(CC(C4)C2)C3)c1Cl` (stereo unspecified) was tested, and the EC50 was > 200 µM and the IC50 was > 200 µM.
Work on `Cc1cc(-c2ccc(N=Nc3c(S(=O)(=O)O)cc4cc(S(=O)(=O)O)cc(N)c4c3O)c(C)c2)ccc1N=Nc1c(S(=O)(=O)O)cc2cc(S(=O)(=O)O)cc(N)c2c1O` yielded an EC50 of 34.7 µM and an IC50 of 132 µM.
For `CC(=O)OCCC1c2ccccc2-n2nc(-c3ccccc3)c(O)c21` (stereo unspecified), the EC50 was > 200 µM and the IC50 was 11.2 µM.
With `COc1ccc(/C=C/C(=N\NC(=O)c2ccccc2)c2sc(Nc3ccc([N+](=O)[O-])cc3)nc2C)cc1OC` the EC50 was > 13.2 µM and the IC50 was > 13.2 µM.
For `O=C(NCCN(CCNC(=O)c1cccc(O)c1O)CCNC(=O)c1cccc(O)c1O)c1cccc(O)c1O`, the EC50 was > 200 µM and the IC50 was 3.39 µM.
For `CC(C)N1CCC2(CC1)NNc1ncccc1-n1cccc12`, the EC50 was > 676 µM and the IC50 was 355 µM.
`Cc1cc2c(c3c1c1ccccc1n3C)C(=O)C=CC2=O` was tested, and the EC50 was > 36.3 µM and the IC50 was 3.72 µM.
For `OCCN(CCO)c1ccc2c(-c3ccccc3)cc(N(CCO)CCO)nc2n1`, the EC50 was > 200 µM and the IC50 was 120 µM.
`COc1ccc2c3c(c4cc(OC)c(OC)cc4c2c1)C[C@H]1CCCCN1C3` was tested, and the EC50 was > 31.6 µM and the IC50 was 0.01 µM.
With `CS(=O)(=O)c1c(N)c2nc(Cl)cn2c2nc3ccccc3nc12` the EC50 was > 5.75 µM and the IC50 was > 5.75 µM.
For `COc1ccc2c3c([nH]c2c1)CCN(Cc1ccccc1)C3`, the EC50 was > 200 µM and the IC50 was 45.7 µM.
`N/N=c1/nc2n(c3ncccc13)C=CNN2` was tested, and the EC50 was > 24.5 µM and the IC50 was > 24.5 µM.
In the case of `COC(=O)c1cccc2cccc(C(=O)N(C)CCN(C)C)c12`, the EC50 is reported as > 708 µM and the IC50 is reported as > 708 µM.
With `C1CN2CCOB(O1)OCC2` the EC50 was > 200 µM and the IC50 was > 200 µM.
`Cc1ccc2c(C3Cc4ccccc4N3C(=O)/C=C\C(=O)O)c(C)[nH]c2c1` (stereo unspecified) was tested, and the EC50 was > 363 µM and the IC50 was 60.3 µM.
`COc1ccc(CCNC(=O)CCc2ccccc2CO)cc1OC` was tested, and the EC50 was > 200 µM and the IC50 was > 200 µM.
With `COC(=O)[C@@H]1C[C@H]([Se]c2ccccc2)CN1S(=O)(=O)c1ccc(C)cc1` the outcome was “inactive”.
For `CC(=O)C1CCN(c2ccccc2)C1` (stereo unspecified), the outcome was “inactive”.
With `CC1(C)COC(CCCCCNC2=NCCCCC2)=N1` the EC50 was > 200 µM and the IC50 was > 200 µM.
`O=c1[nH]cnc2c1sc1nc3ccccc3n12` was tested, and the EC50 was > 200 µM and the IC50 was 141 µM.
`C[C@H](CS)C(=O)N1c2ccccc2C[C@H]1C(=O)O` was tested, and the EC50 was > 200 µM and the IC50 was > 200 µM.
With `O=[N+]([O-])c1nccn1CCC[n+]1ccccc1` the EC50 was > 200 µM and the IC50 was > 200 µM.
For `Cc1ccccc1OCC(COC(=O)Nc1ccccc1)OC(=O)Nc1ccccc1` (stereo unspecified), the EC50 was > 32.4 µM and the IC50 was > 32.4 µM.
`CCC1CN2CCc3cc(OC)c(OC)cc3C2CC1CC1c2cc(OC)c(OC)cc2CCN1C(=O)CNC(=O)OC(C)(C)C` (stereo unspecified) was tested, and the outcome was “inactive”.
`CCOc1csc([C@H]2CCC3[C@@H]4CC=C5C[C@@H](OC(C)=O)CC[C@]5(C)C4CC[C@@]32C)n1` (stereo partly specified) was tested, and the EC50 was > 56.2 µM and the IC50 was > 56.2 µM.
For `COC(=O)C(=O)/C=C(/O)c1c(C)[nH]c2ccccc12`, the EC50 was > 200 µM and the IC50 was > 200 µM.
For `Cc1cc2ccccc2oc(=O)/c1=N\Nc1ccccc1`, the EC50 was > 200 µM and the IC50 was 34.7 µM.
With `CC(=O)OC1CC2C(C)(C)C(=O)C=C[C@]2(C)C2CCC3(C)C(c4ccoc4)[C@@H](O)[C@H]4O[C@]43[C@]12C` (stereo partly specified) the EC50 was > 57.5 µM and the IC50 was 6.17 µM.

Reference: PubChem BioAssay AID179 (DTP/NCI, 2004)
